According to article PMC6332430, “Design, Synthesis and Biological Evaluation of Novel Substituted N,N′-Diaryl ureas as Potent p38 Inhibitors” (Molecules, 2015):
Where two headings read alike, the source gives them in different places.

Key:
Assay in all cases: TR-FRET kinase assay, GFP-ATF2 ([…]-96) phosphorylation
Assay type in all cases: biochemical
MAPK14/p38α [1] = biological target: T1, MAPK14/p38α (Homo sapiens, UniProt Q16539)
p38γ = biological target: T2, p38γ (Homo sapiens, UniProt P53778)
T2 construct: gene MAPK12
T2 sequence (P53778 1-367): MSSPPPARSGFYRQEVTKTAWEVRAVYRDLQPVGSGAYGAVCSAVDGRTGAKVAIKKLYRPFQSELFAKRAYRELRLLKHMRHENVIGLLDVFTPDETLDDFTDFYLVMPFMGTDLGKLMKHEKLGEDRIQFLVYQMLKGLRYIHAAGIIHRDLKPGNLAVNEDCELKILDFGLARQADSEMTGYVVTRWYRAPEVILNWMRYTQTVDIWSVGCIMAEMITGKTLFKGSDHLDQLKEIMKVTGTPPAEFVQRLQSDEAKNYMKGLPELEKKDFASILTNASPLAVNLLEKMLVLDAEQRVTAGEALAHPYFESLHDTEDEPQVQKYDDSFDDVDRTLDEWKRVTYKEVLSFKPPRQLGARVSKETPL

p38δ = biological target: T3, p38δ (Homo sapiens, UniProt O15264)
T3 construct: gene MAPK13
T3 sequence (O15264 1-365): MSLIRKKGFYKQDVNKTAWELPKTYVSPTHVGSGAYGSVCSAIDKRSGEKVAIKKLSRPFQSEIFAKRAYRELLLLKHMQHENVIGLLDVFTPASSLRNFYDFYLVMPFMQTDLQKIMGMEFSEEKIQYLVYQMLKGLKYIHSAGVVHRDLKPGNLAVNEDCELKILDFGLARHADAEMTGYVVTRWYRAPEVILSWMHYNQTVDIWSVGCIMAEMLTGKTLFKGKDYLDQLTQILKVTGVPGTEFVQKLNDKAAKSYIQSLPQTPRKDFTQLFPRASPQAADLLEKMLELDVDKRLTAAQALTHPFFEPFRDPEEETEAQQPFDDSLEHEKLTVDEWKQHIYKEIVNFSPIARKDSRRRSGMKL

p38β = biological target: T4, p38β (Homo sapiens, UniProt Q15759)
T4 construct: gene MAPK11

MAPK14/p38α [2] = biological target: T1, MAPK14/p38α; details: 90 μM ATP, 0.4 μM GFP-ATF2, 10 mM MgCl2, pH 7.5, RT, 15 min preincubation; unreliable (the two tables disagree)

T1 sequence (Q16539 2-360): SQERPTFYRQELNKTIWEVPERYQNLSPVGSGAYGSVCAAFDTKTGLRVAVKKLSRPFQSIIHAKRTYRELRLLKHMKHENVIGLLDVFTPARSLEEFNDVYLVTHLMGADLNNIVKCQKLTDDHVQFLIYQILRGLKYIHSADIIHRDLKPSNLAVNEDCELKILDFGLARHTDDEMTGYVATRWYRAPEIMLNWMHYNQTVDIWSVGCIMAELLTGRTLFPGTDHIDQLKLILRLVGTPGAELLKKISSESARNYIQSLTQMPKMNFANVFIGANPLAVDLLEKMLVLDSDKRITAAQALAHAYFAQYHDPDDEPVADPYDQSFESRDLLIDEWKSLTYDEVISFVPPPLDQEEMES
T4 sequence (Q15759 whole entry): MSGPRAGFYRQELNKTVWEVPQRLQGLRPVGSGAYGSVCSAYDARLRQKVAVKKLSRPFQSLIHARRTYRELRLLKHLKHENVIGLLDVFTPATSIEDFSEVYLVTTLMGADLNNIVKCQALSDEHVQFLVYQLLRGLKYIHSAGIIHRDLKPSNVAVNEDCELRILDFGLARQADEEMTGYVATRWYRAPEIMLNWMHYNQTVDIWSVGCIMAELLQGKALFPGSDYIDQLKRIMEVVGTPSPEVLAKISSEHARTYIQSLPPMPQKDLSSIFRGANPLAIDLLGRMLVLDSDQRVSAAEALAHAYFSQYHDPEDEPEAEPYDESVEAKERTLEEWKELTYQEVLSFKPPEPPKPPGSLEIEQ

**Q.** Which IC50 (MAPK14/p38α [1]) does the source give for `Cc1ccc(-n2nc(C(C)(C)C)cc2NC(=O)NCc2cc(F)ccc2Oc2ccc3nc(NC(=O)NC4CCCCC4)sc3c2)cc1` [9h, 1-(3-(Tert-butyl)-1-(p-tolyl)-1H-pyrazol-5-yl)-3-(2-((2-(3-cyclohexylureido)benzo[d]thiazol-6-yl)oxy)-5-fluorobenzyl)urea] here?
**A.** Its IC50 is 12.4 ± 0.18 nM.

**Q.** Which IC50 (MAPK14/p38α [1]) does the source give for `COC(=O)Nc1nc2ccc(Oc3ccccc3CNC(=O)Nc3cc(C(C)(C)C)nn3-c3ccc(C)cc3)cc2s1` [9c, Methyl(6-(2-((3-(3-(tert-butyl)-1-(p-tolyl)-1H-pyrazol-5-yl)ureido)methyl)phenoxy)benzo[d]thiazol-2-yl)carbamate] here?
**A.** Its IC50 is 1.02 ± 0.09 nM.

**Q.** How did the IC50 (MAPK14/p38α [1]) turn out when `COC(=O)Nc1nc2ccc(Oc3ccccc3CNC(=O)Nc3cc(C(C)(C)C)nn3-c3ccc([N+](=O)[O-])cc3)cc2s1` [9a, Methyl(6-(2-((3-(3-(tert-butyl)-1-(4-nitrophenyl)-1H-pyrazol-5-yl)ureido)methyl)phenoxy)benzo[d]thiazol-2-yl)carbamate] was run?
**A.** The IC50 was 1.31 ± 0.09 nM.

**Q.** `Cc1ccc(-n2nc(C(C)(C)C)cc2NC(=O)NCc2ccccc2Oc2ccc3nc(NC(=O)NC(C)(C)C)sc3c2)cc1` [9b, 1-(3-(Tert-butyl)-1-(p-tolyl)-1H-pyrazol-5-yl)-3-(2-((2-(3-(tert-butyl)ureido)benzo[d]thiazol-6-yl)oxy)benzyl)urea] was tested. Which IC50 (MAPK14/p38α [1]) did it give?
**A.** The IC50 was 6.16 ± 0.07 nM.

**Q.** Which IC50 (p38γ) does the source give for `CCNC(=O)Nc1nc2ccc(Oc3ccccc3CNC(=O)Nc3cc(C(C)(C)C)nn3-c3ccc(C)cc3)cc2s1` [9d, 1-(3-(Tert-butyl)-1-(p-tolyl)-1H-pyrazol-5-yl)-3-(2-((2-(3-ethylureido)benzo[d]thiazol-6-yl)oxy)benzyl)urea] here?
**A.** The IC50 was 191 ± 7.2 nM.

**Q.** And the IC50 (p38δ)?
**A.** The IC50 was 231 ± 7.15 nM.

**Q.** What about the IC50 (p38β) of the same compound?
**A.** Its IC50 is 17.5 ± 1.25 nM.

**Q.** And the IC50 (MAPK14/p38α [1])?
**A.** Its IC50 is 1.5 ± 0.24 nM.

**Q.** With `COC(=O)Nc1nc2ccc(Oc3ccc(F)cc3CNC(=O)Nc3cc(C(C)(C)C)nn3-c3ccc(C)cc3)cc2s1` [9j, Methyl(6-(2-((3-(3-(tert-butyl)-1-(p-tolyl)-1H-pyrazol-5-yl)ureido)methyl)-4-fluorophenoxy)benzo[d]thiazol-2-yl)carbamate] as the compound, how does the IC50 (MAPK14/p38α [1]) read?
**A.** The IC50 was 4.28 ± 1.14 nM.

**Q.** Which results are given for `CCNC(=O)Nc1nc2ccc(Oc3ccc(F)cc3CNC(=O)Nc3cc(C(C)(C)C)nn3-c3ccc(C)cc3)cc2s1` [9g, 1-(3-(Tert-butyl)-1-(p-tolyl)-1H-pyrazol-5-yl)-3-(2-((2-(3-ethylureido)benzo[d]thiazol-6-yl)oxy)-5-fluorobenzyl)urea]?
**A.** IC50 (p38γ): 424 ± 5.75 nM; IC50 (p38δ): 948.4 ± 8.35 nM; IC50 (p38β): 20.1 ± 1.4 nM; p38α IC50 (nM) ^a (MAPK14/p38α [2]): 0.844 ± 1.04 nM

**Q.** `Cc1ccc(-n2nc(C(C)(C)C)cc2NC(=O)NCc2cc(F)ccc2Oc2ccc3nc(NC(=O)NC(C)(C)C)sc3c2)cc1` [9i, 1-(3-(Tert-butyl)-1-(p-tolyl)-1H-pyrazol-5-yl)-3-(2-((2-(3-(tert-butyl)ureido)benzo[d]thiazol-6-yl)oxy)-5-fluorobenzyl)urea] was tested. Which IC50 (MAPK14/p38α [1]) did it give?
**A.** The IC50 was 7.54 ± 1.99 nM.

**Q.** With `Cc1ccc(-n2nc(C(C)(C)C)cc2NC(=O)NCc2ccccc2Oc2ccc3nc(NC(=O)NCCCl)sc3c2)cc1` [9e, 1-(3-(Tert-butyl)-1-(p-tolyl)-1H-pyrazol-5-yl)-3-(2-((2-(3-(2-chloroethyl)ureido)benzo[d]thiazol-6-yl)oxy)benzyl)urea] as the compound, how does the IC50 (MAPK14/p38α [1]; read-out: p38α IC50 (nM) ^a) read?
**A.** Its IC50 is 3.29 ± 0.25 nM.

**Q.** How did the IC50 (MAPK14/p38α [1]) turn out when `Cc1ccc(-n2nc(C(C)(C)C)cc2NC(=O)NCc2cc(F)ccc2Oc2ccc3nc(N)sc3c2)cc1` [8b, 1-(2-((2-Aminobenzo[d]thiazol-6-yl)oxy)-5-fluorobenzyl)-3-(3-(tert-butyl)-1-(p-tolyl)-1H-pyrazol-5-yl)urea] was run?
**A.** The IC50 was 1.11 ± 0.2 nM.

**Q.** How did the IC50 (MAPK14/p38α [1]) turn out when `Cc1ccc(-n2nc(C(C)(C)C)cc2NC(=O)NCc2ccccc2Oc2ccc3nc(NC(=O)NC4CCCCC4)sc3c2)cc1` [9f, 1-(3-(Tert-butyl)-1-(p-tolyl)-1H-pyrazol-5-yl)-3-(2-((2-(3-cyclohexylureido)benzo[d]thiazol-6-yl)oxy)benzyl)urea] was run?
**A.** Its IC50 is 4.499 ± 0.04 nM.

**Q.** How did the IC50 (MAPK14/p38α [1]) turn out when `CC(C)(C)c1cc(NC(=O)NCc2ccccc2Oc2ccc3nc(N)sc3c2)n(-c2ccc([N+](=O)[O-])cc2)n1` [8a, 1-(2-((2-Aminobenzo[d]thiazol-6-yl)oxy)benzyl)-3-(3-(tert-butyl)-1-(4-nitrophenyl)-1H-pyrazol-5-yl)urea] was run?
**A.** The IC50 was 2.878 ± 0.01 nM.
